Two molecules from patent US7026270B2, “Biocidal compounds and their preparation” (Syngenta Crop Protection, Inc., priority 2002, dated 2006) can be followed below.

Holding throughout (format): in vivo
The subject of assay [1] is Stagonospora Nodorum (LEPTNO). Kind of assay: Foliar fungicidal test on wheat, 1 day protectant, Stagonospora Nodorum. The note with it: 100 ppm foliar spray on wheat; inoculated one day after chemical application; banded assessment. The procedure: (§1) This Example illustrates the fungicidal properties of the compounds of formula (I). The compounds were tested against a variety of foliar fungal diseases of plants. The technique employed was as follows. Plants were grown on an artificial, cellulose based growing medium. The test compounds were individually diluted in reverse osmosis water to a final concentration of 100 ppm in water (that is, 1 mg of compound in a final volume of 10 ml) immediately before use. TWEEN 20 (at a final concentration of 0.05% by volume) was added with the water to improve retention of the spray deposit. TWEEN is a registered trade mark. The compounds were applied to the foliage of the test plants by spraying the plant to maximum droplet retention. […] After chemical application and inoculation, the plants were incubated under high humidity conditions (except those inoculated with Blumeria graminis f.sp. tritici) and then put into an appropriate environment to allow infection to proceed until the disease was ready for assessment. […] However, each individual disease was assessed after the same time period for all compounds. […] The disease level present (the percentage leaf area covered by actively sporulating disease) was assessed visually. For each treatment, the assessed values for all its replicates were meaned to provide mean disease values. Untreated control plants were assessed in the same manner. […]

Assay [2] concerns Puccinia triticina (PUCCRT). Kind of assay: Foliar fungicidal test on wheat, 1 day protectant, Puccinia triticina. To be noted: 100 ppm foliar spray on wheat; inoculated one day after chemical application; banded assessment. The procedure: as §1
The subject of assay [3] is Blumeria graminis f.sp. tritici (ERYSGT). Kind of assay: Foliar fungicidal test on wheat, 6 hour protectant, Blumeria graminis f.sp. tritici. To be noted: 100 ppm foliar spray on wheat; inoculated 6 hours after chemical application; banded assessment. The procedure:
as §1

For `CO[C@@H]1CO[C@H]2[C@@H](O)[C@H](c3c[nH]c(=O)[nH]c3=O)O[C@@H]2[C@@H]1NC(N)=O` (stereo in doubt) [(II), Malayamycin A], the “PRCO (Percentage Disease Reduction from Control) LEPTNO 1 day Protectant” value in assay [1] is recorded as 100. Besides, the “PRCO (Percentage Disease Reduction from Control) PUCCRT 1 day Protectant” value in assay [2] came to 100. The “PRCO (Percentage Disease Reduction from Control) ERYSGT 6 hour Protectant” value in assay [3] is 100.
Consider `NC(=O)N[C@H]1[C@H]2O[C@@H](c3c[nH]c(=O)[nH]c3=O)[C@H](O)[C@@H]2OC[C@H]1O` (stereo in doubt) [(III), Desmethylmalayamycin A], for which, in assay [1], the “PRCO (Percentage Disease Reduction from Control) LEPTNO 1 day Protectant” value came to 99. In assay [2], the “PRCO (Percentage Disease Reduction from Control) PUCCRT 1 day Protectant” value amounted to 100. The “PRCO (Percentage Disease Reduction from Control) ERYSGT 6 hour Protectant” value in assay [3] was determined as 0.
